The assay addresses Ciona intestinalis Ci-VSP cytoplasmic domain (phosphatase domain, residues 248-576 of Ci-VSP, SEQ ID NO: 2), wild type, GST fusion protein (GST-Ci-VSP) (Ciona intestinalis, UniProt Q4W8A1). The experiment in a line: Malachite green assay of phosphoinositide phosphatase activity at various PIP3 concentrations, Michaelis-Menten fit. In kind it is biochemical. The note with it: substrate PIP3, initial rate V0 at t=0, Michaelis-Menten fit (FIG. 4c). As for the experimental part:
To express N-terminal fused protein of the cytoplasmic domain of Ci-VSP with the GST gene, the cDNA encoding residues 248-576 of Ci-VSP was subcloned into the EcoRI-XhoI site of pGEX4T3 (Amersham Pharmacia). GST-fused protein was expressed and purified from E. coli JM109 with glutathione-sepharose CL-4B (Amersham Pharmacia). Phosphatase activity of Ci-VSP was measured with the methods previously adopted for PTEN phosphatase.
To see whether the Ci-VSP has phosphatase activity that uses PI(3, 4, 5)P3 as a substrate, a fusion protein of GST and the whole C-terminal cytoplasmic region of Ci-VSP was synthesized. FIG. 3b represents phosphoinositide phosphatase activity of the fusion protein of glutathione s-transferase and the phosphatase-like domain of Ci-VSP by a malachite green assay using PI(3, 4, 5)P3 as a substrate. […] BIOMOL GREEN™ reagent (Biomol, Plymouth Meeting, Pa.) was added to the sample and […] was measured by using H2O as a reference. […]
Enzyme activity of Ci-VSP was examined with thin layer chromatography (TLC). […] Where there is enzyme activity using PI(3, 4, 5)P3 as a substrate, the degraded product PIP2(NBD6-diC6-PI(4, 5)P2) is detected. […]
Malachite green imparts pale yellow in the absence of inorganic phosphate. […] Thus, by measuring absorbance of malachite green at 620 nm, the inorganic phosphate that is generated by the degradation of PI(3, 4, 5)P3 to PI(4, 5)P2 can be quantified. […]

Sequence of Ciona intestinalis Ci-VSP cytoplasmic domain (phosphatase domain, residues 248-576 of Ci-VSP, SEQ ID NO: 2), wild type, GST fusion protein (GST-Ci-VSP) (Q4W8A1 entry or part of it): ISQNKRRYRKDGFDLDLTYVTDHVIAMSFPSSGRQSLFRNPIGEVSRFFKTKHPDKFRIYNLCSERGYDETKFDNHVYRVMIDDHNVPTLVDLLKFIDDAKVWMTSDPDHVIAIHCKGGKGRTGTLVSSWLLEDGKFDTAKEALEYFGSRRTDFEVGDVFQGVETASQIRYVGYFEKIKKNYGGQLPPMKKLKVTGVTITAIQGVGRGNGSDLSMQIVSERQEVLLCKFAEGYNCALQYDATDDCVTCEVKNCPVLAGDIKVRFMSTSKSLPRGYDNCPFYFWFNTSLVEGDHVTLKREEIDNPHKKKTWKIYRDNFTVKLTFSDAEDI

Regarding PIP3, the “Vmax (maximum rate)” value came out at 0.292 nmol/min/µg. Further, for the setting “read-out: Km (substrate concentration required for 1/2 Vmax)”, the Km worked out at 36 µM.
